What all share (assay type): functional
The subject of one test is Shigella sonnei. The test can be described thus: Antibacterial activity against Shigella sonnei ATCC 11060 after 24 hr by two-fold serial dilution method. The settings on record: ATCC 11060, 24 h.
Another test has as its system Staphylococcus aureus. The test can be described thus: Antibacterial activity against Staphylococcus aureus ATCC 25293 after 24 hr by two-fold serial dilution method. The settings on record: ATCC 25293, 24 h.
The subject of another test is Salmonella typhimurium. The test can be described thus: Antibacterial activity against Salmonella enterica subsp. enterica serovar Typhimurium after 24 hr by two-fold serial dilution method.
A further test relates to Escherichia coli. As to the kind of experiment: Antibacterial activity against Escherichia coli ATCC 25922 after 24 hr by two-fold serial dilution method. The settings on record: ATCC 25922, 24 h.
For another test, the system named is Bacillus subtilis. The test can be described thus: Antibacterial activity against Bacillus subtilis ATCC 10400 after 24 hr by two-fold serial dilution method. The settings on record: ATCC 10400, 24 h.

Experimental findings from ChEMBL document CHEMBL3045385, “Design, synthesis and molecular modelling of novel 4-thiazolidinones of potential activity against Gram positive bacteria” (2013) are described below.

≈ marks a conversion by molar mass, not a printed value.

As usually defined, the MIC is the lowest concentration that inhibits growth of the organism. As for `O=C(N[C@H](CO)[C@H](O)c1ccc([N+](=O)[O-])cc1)C(Cl)Cl` [CHLORAMPHENICOL], the MIC worked out at 25 µg/mL (≈ 77.4 µM) with Shigella sonnei; 6.25 µg/mL (≈ 19.3 µM) against Staphylococcus aureus; 25 µg/mL (≈ 77.4 µM) in the test on Salmonella typhimurium; 12.5 µg/mL (≈ 38.7 µM) against Escherichia coli; 6.25 µg/mL (≈ 19.3 µM) against Bacillus subtilis.
